Measured values from patent US20190142046A1, “FUNCTIONALLY REINFORCED DESALTED NUTRITIONAL COMPOSITIONS FROM HALOPHYTES AND PREPARATION METHOD THEREOF” (PHYTO CORPORATION, priority 2016, published 2019).
Counter-ions that a name gives are not always drawn.

Key:
Format in all cases: cell-based
C/EBPα = assay: Real-Time RT-PCR, C/EBPα gene expression in 3T3-L1; details: 5 μM and 10 μM
Procedure: (§1) Real-Time RT-PCR was performed to investigate the effect of trans-ferulic acid (TFA) on transcription factors involved in lipid metabolism at mRNA expression levels. Total RNA was isolated from a control group and each test group treated with various concentrations of TFA (easy-Blue, iNtRon, INC, Daejeon, Korea) and diluted at the same concentration, and cDNA synthesis was carried out using the diluted RNA samples (cDNA reverse transcription kits, Applied Biosystems, CA, USA).
(§2) In brief, after 3T3-L1 preadipocytes were treated with TFA at various concentrations, namely 1, 2, 5 and 10 μM), Real-time qRT-PCR was performed using the primers of Table 9 (CFX96 real-time PCR detection system, Bio-Rad Laboratories, Hercules, Calif., USA). The PCR conditions included denaturation at […] for 3 min, 45 cycles of 95° C. for 5 sec and 60° C. for 20 sec, and heating up to 95° C. (by increasing the temperature at a rate of 0.2° C./15 sec) to terminate the reaction. […] Therefore, the Desalted Salicornia Powder (DSP) containing TFA as an effective component may effectively reduce body fat by inhibiting adipocyte differentiation and lipid droplet formation and may eventually lead to a decrease in body weight, and thus has the potential to be applied as a functional food and feedstuff for preventing and/or treating obesity.

SREBP-1 = assay: Real-Time RT-PCR, SREBP-1 gene expression in 3T3-L1; details: 1, 2, 5 and 10 μM; largest decrease at 10 μM
Procedure: as §1, §2

PPARγ = assay: Real-Time RT-PCR, PPARγ gene expression in 3T3-L1; details: 10 μM
Procedure: as §1, §2

3T3-L1 cells [1] = assay: Oil Red O staining of lipid droplets during adipocyte differentiation
Procedure: The major marker component of the desalted Salicornia powder, trans-ferulic acid (TFA), was evaluated for its inhibitory effect on adipocyte differentiation using 3T3-L1 cells as an in-vitro model of adipocyte differentiation. 3T3-L1 preadipocytes were checked for contamination every eight hours to improve confidence in the experiment. Primary preadipocytes were propagated, and were then induced to differentiate with a culture medium containing 3-isobutyl-1-methylxanthine (IBMX), dexamethasone and insulin. During the differentiation induction, the medium was changed twice every three days. After being induced to differentiate, 3T3-L1 cells were subjected to Oil Red O staining to detect the presence of intracellular lipid droplets. First, the medium was discarded from each well, and cells were fixed with 4% paraformaldehyde. Subsequently, cells were washed with 100% 1,2-propanediol dehydration solution for 5 min and then stained with Oil Red O stain solution. After Oil Red O staining, 85% 1,2-propanediol stain differential solution was added to each well for cell washing. Finally, distilled water was added to each well to prevent stained cells from drying, and cells were observed under a microscope to determine lipid accumulation.

3T3-L1 cells [2] = assay: Intracellular triglyceride formation during adipocyte differentiation
Procedure: The major marker component of the desalted Salicornia powder, trans-ferulic acid (TFA), was evaluated for its inhibitory effect on adipocyte differentiation using 3T3-L1 cells as an in-vitro model of adipocyte differentiation. 3T3-L1 preadipocytes were checked for contamination every eight hours to improve confidence in the experiment. Primary preadipocytes were propagated, and were then induced to differentiate with a culture medium containing 3-isobutyl-1-methylxanthine (IBMX), dexamethasone and insulin. During the differentiation induction, the medium was changed twice every three days. In addition, as a marker for adipocyte differentiation, intracellular triglyceride formation was investigated.

FAS = assay: Real-Time RT-PCR, FAS gene expression in 3T3-L1; details: 1, 2, 5 and 10 μM; largest decrease at 10 μM
Procedure: as §1, §2

## COc1cc(/C=C/C(=O)O)ccc1O [TFA, trans-ferulic acid]
C/EBPα
  C/EBPα gene expression compared to differentiation-induced control (MDI): significantly reduced in a dosage-dependent manner
SREBP-1
  SREBP-1 gene expression compared to differentiation-induced control (MDI): reduced in a dosage-dependent manner
PPARγ
  PPARγ gene expression: significantly reduced
3T3-L1 cells [1]; 5 μM and 10 μM
  inhibition of lipid droplet formation compared to differentiation-induced control (MDI): remarkably significant inhibition
3T3-L1 cells [1]; within the used concentrations
  adipocyte differentiation and lipid droplet formation (Oil Red O): inhibit adipocyte differentiation and lipid droplet formation in a dosage-dependent manner
3T3-L1 cells [2]; 5 μM and 10 μM
  triglyceride formation compared to differentiation-induced control (MDI): remarkably significantly inhibited
3T3-L1 cells [2]; 1, 2, 5 and 10 μM
  intracellular triglyceride formation: reduced intracellular triglyceride formation in a dosage-dependent manner
FAS
  FAS gene expression compared to differentiation-induced control (MDI): reduced in a dosage-dependent manner
